PMC6941357, “An in vitro toolbox to accelerate anti-malarial drug discovery and development” (Malaria Journal, 2020)
Converted amounts (≈) assume the structure as drawn.

Experiments:
CYP2C9 = CYP2C9 (Homo sapiens, UniProt P11712); test: Cytochrome P450 inhibition in human liver microsomes
In short: (§1)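 Human liver microsomes were incubated with an isoform-specific probe substrate, and formation of the CYP-mediated metabolite was measured by LC–MS after quenching in ice-cold acetonitrile with diazepam as internal standard. Inhibition was expressed as percent reduction in metabolite formation versus an uninhibited control.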

CYP2C19 = CYP2C19 (Homo sapiens, UniProt P33261); test: as above; conditions: for inhibition at 20 µM: human, pH 7.4; for inhibition at 20 µM / CYP2C19 % inhibition at max conc: microsomes
CYP2C19, sequence (P33261 whole entry): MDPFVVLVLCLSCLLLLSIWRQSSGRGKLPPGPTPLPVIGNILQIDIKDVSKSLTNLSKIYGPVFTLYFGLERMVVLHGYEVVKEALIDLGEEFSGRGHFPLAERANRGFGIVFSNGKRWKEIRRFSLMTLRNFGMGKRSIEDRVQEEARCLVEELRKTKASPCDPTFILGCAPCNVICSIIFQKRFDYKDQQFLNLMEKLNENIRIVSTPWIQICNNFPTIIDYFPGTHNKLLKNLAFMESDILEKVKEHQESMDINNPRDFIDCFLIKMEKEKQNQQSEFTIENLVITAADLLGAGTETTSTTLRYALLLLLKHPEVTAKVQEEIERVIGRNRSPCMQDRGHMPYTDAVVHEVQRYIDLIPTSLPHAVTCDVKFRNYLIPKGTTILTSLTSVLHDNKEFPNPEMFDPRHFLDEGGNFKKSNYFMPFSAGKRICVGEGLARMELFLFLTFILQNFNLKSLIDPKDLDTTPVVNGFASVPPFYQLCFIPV
In short: as §1

CYP2D6 = CYP2D6 (Homo sapiens, UniProt P10635); test: as above
CYP2D6, sequence (P10635 whole entry): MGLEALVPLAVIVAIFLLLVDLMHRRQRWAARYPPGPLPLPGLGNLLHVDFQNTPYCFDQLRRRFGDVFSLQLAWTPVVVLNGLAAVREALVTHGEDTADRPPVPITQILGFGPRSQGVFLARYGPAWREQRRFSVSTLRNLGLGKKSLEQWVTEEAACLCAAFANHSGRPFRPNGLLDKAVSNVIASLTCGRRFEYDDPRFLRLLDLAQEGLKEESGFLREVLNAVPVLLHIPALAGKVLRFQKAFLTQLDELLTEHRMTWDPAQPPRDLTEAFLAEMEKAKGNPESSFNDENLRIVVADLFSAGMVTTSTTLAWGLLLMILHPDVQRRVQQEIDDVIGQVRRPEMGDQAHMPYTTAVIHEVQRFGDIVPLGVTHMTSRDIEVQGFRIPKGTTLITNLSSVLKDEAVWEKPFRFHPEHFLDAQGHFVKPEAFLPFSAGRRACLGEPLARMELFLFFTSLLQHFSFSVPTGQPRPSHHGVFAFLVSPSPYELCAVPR
In short: as §1

CYP3A4 = CYP3A4 (Homo sapiens, UniProt P08684); test: as above; conditions: for IC50: highest concentration tested 20 µM; for inhibition at 20 µM: human; for inhibition at 20 µM / CYP3A4 (midaz) % inhibition at max conc / CYP3A4 (test) % inhibition at max conc: microsomes
CYP3A4, sequence (P08684 whole entry): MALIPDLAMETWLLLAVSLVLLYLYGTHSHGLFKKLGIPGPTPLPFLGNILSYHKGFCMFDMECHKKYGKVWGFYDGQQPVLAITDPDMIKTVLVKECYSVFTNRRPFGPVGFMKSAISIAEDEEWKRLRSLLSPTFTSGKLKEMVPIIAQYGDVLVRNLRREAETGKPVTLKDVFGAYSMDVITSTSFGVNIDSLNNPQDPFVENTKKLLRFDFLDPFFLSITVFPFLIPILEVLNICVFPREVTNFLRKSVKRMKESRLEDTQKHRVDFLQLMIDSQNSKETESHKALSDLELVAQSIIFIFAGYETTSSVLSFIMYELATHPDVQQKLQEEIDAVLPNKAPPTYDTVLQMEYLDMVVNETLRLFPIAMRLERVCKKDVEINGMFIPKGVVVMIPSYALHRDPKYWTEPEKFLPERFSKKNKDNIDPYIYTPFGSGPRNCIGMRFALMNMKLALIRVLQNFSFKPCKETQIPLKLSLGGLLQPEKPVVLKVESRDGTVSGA
In short: as §1

CYP1A2 = molecular target: T1, CYP1A2 (Homo sapiens, UniProt P05177); test: as above
T1 sequence (P05177 1-516): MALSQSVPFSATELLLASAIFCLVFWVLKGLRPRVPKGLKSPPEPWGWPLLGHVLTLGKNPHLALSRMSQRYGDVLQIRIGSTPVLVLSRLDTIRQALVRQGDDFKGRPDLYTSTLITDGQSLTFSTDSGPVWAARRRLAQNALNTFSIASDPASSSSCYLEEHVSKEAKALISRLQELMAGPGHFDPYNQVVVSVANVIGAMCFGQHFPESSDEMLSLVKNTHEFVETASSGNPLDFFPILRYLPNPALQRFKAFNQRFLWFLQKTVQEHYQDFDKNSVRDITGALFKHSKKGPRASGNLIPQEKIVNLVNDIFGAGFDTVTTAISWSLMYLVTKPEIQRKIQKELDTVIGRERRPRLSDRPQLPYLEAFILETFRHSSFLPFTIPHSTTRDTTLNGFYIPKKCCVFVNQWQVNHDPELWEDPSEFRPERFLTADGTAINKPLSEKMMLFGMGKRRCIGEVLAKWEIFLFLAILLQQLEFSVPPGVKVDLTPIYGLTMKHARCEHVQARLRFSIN
In short: as §1

[1] = Solubility limited absorbable dose (SLAD) calculation with predicted human jejunal Peff; conditions: for solubility: FaSSIF; for An (absorption number): Peff × tres/R, minimum 1; for SLAD: Ssi × V (500 mL) × Mp; for Permeability classification: based on ref 80 and control compounds; for Predicted human Peff: from Caco-2 Papp via calibration plot
Text: Predicted Peff values were obtained from a calibration plot of literature Peff values vs measured Caco-2 Papp using either buffer or plasma as the transport medium (see Results section).

[2] = Plasma protein binding via ultracentrifugation (UC); type: in vitro ADME, human; conditions: pH 7.4
In short: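 Pooled human plasma (3–4 donors) spiked and ultracentrifuged; protein-free supernate gave Cunbound, parallel tubes kept at 37 °C gave Ctotal and stability (start vs end). Samples matrix-matched 1:1 with opposite blank and quantified against a common calibration curve; fu SD by error propagation.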

[3] = Binding to human liver microsomes via ultracentrifugation; type: in vitro ADME; conditions: human, liver microsomes, read-out: Fraction unbound, HLM
In short: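 Unbound fraction by ultracentrifugation: Cunbound measured in protein-free supernate, Ctotal from spiked tubes held at 37 °C, sampled at start and end to check degradation. Matrix was 0.4 mg/mL human liver microsomal protein, 0.1 M phosphate pH 7.4; matrix-matched analysis against one calibration curve.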

[4] = In vitro metabolism (metabolic stability) in human liver microsomes; conditions: human, liver microsomes, pH 7.4, HLM CLint, human liver microsomes; average of n = 2 replicates; < 7 means < 15% loss over 60 min
In short: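 Compound depletion in human liver microsomes was followed by LC–MS at 2–60 min, with cofactor-free controls. First-order depletion rate constants gave in vitro CLint (µL/min/mg protein), corrected to unbound CLint using measured microsomal fu.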

[5] = CYP3A4 (midaz) IC50, human liver microsomes, CYP3A4 (midaz)
[6] = CYP3A4 (test) IC50, human liver microsomes, CYP3A4 (test)
[7] = pH 7.4, CYP3A4 (midaz) % inhibition at max conc
[8] = human, neat pooled plasma, ultracentrifugation, neat plasma, read-out: Fraction unbound, human plasma
[9] = human plasma, fraction unbound, read-out: Plasma fu
[10] = pH 7.4, CYP3A4 (test) % inhibition at max conc

CYP2C9, sequence (P11712 whole entry, canonical isoform): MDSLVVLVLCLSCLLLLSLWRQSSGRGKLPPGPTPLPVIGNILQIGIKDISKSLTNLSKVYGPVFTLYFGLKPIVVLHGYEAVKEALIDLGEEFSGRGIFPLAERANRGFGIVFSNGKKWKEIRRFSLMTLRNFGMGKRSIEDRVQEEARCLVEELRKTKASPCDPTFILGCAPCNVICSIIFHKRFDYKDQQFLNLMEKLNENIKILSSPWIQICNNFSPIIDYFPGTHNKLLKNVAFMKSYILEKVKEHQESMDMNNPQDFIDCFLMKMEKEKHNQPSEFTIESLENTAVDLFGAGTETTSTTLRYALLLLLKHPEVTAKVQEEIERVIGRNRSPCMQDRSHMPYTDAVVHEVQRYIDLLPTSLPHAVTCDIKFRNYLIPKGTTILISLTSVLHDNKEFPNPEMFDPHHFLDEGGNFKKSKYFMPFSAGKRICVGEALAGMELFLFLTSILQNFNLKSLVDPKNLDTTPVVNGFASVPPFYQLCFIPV

SMILES | IC50 (CYP2C9) [µM] | IC50 (CYP2C19) [µM] | inhibition at 20 µM (CYP2C19) [%] | IC50 (CYP2D6) [µM] | IC50 (CYP3A4; [5]) [µM] | IC50 (CYP3A4; [6]) [µM] | inhibition at 20 µM (CYP3A4; [7]) [%] | IC50 (CYP1A2) [µM] | solubility [1] [µg/mL] | An (absorption number) [1] | SLAD [1] [mg] | Permeability classification [1] | Predicted human Peff [1] | fraction unbound at […] [2, 8] | fraction unbound at […] ([3]; pH 7.4, 0.4 mg/mL protein) | microsomal CLint at 1 µM [4] [µL/min/mg] | CYP2C9 % inhibition at max conc (CYP2C9; microsomes) | inhibition at 20 µM (CYP3A4; [10]) [%] | CYP1A2 % inhibition at max conc (CYP1A2; microsomes) | CYP3A4 (midaz) % inhibition at max conc (CYP3A4) | other results
COc1cc(C)c2c(Oc3cccc(C(F)(F)F)c3)c(OC)cc(NC(C)CCCN)c2n1 (stereo not shown) [Tafenoquine] | 14 | > 20 | 42 | > 20 | > 20 | 3.8 | 40 | > 20 | 15.8 (≈ 34.1 µM) | 13 | 105 | High (> 85% absorption (high)) | 11 10^−4 cm/s | 0.11 | 0.002 ± 0.0003 | < 7 |  |  |  |  | Ki (CYP2C9): 10 µM; inhibition at 20 µM (CYP2D6; human, microsomes, pH 7.4): 35%; Ki (CYP3A4; CYP3A4 (test) Ki, human liver microsomes, CYP3A4 (test)): 2.3 µM; inhibition at 20 µM (CYP1A2; human, microsomes, pH 7.4): 20%; fraction unbound at […] [2, 9]: 0.0007
CO[C@H]1O[C@@H]2O[C@@]3(C)CC[C@H]4[C@H](C)CC[C@@H]([C@H]1C)[C@@]24OO3 [Artemether] | > 20 | > 20 |  | > 20 | > 20 | > 20 | 39 | > 20 | 166 (≈ 556 µM) | 4.7 | 388 | High (> 85% absorption (high)) | 3.9 10^−4 cm/s | 0.1 | 0.5 ± 0.052 | 163 | nmi | 37 | nmi |  | CYP2C19 % inhibition at max conc (CYP2C19): nmi; CYP2D6 % inhibition at max conc (CYP2D6; microsomes): nmi
C[C@H]1[C@@H](O)O[C@@H]2O[C@@]3(C)CC[C@H]4[C@H](C)CC[C@@H]1[C@@]24OO3 [Dihydroartemisinin] | > 20 | > 20 |  | > 20 | > 20 | > 20 |  | 11 |  | 5.2 | 413 | High (> 85% absorption (high)) | 4.4 10^−4 cm/s |  |  | 16.6 | nmi |  |  | nmi | CYP2C19 % inhibition at max conc (CYP2C19): nmi; CYP2D6 % inhibition at max conc (CYP2D6; microsomes): nmi; CYP3A4 (test) % inhibition at max conc (CYP3A4): nmi; Ki (CYP1A2): 6.2 µM; fraction unbound at […] ([2]; human, pooled plasma, ultracentrifugation, instability evident, estimate only, read-out: Fraction unbound, human plasma): 0.21 ± 0.01; fraction unbound at […] [2, 9]: 0.21; fraction unbound at […] ([3]; pH 7.4, instability evident, estimate only): 0.87 ± 0.1
N#Cc1cc(NC(=O)[C@H]2c3ccccc3C(=O)N(CC(F)(F)F)[C@@H]2c2cccnc2)ccc1F [SJ733] | > 20 | > 20 | 38 | 16 | > 20 | > 20 | 33 | > 20 | 101 (≈ 216 µM) | 2.2 | 109 | High (> 85% absorption (high)) | 1.8 10^−4 cm/s | 0.17 | 0.58 ± 0.069 | 142 |  | 37 | nmi |  | inhibition at 20 µM (CYP2C9; human, microsomes, pH 7.4): 33%; Ki (CYP2D6): 9.6 µM
C[C@H]1Cc2c([nH]c3cc(Cl)c(F)cc23)[C@@]2(N1)C(=O)Nc1ccc(Cl)cc12 [KAE609] | 5.5 | < 0.25 |  | 5.9 | > 20 | > 20 |  | 4.5 | 111 (≈ 284 µM) | 13 | 738 | High (> 85% absorption (high)) | 11 10^−4 cm/s | 0.057 | 0.019 ± 0.001 | 24.1 |  | 30 |  | nmi | Ki (CYP2C9): 4 µM; Ki (CYP2C19): < 0.15 µM; Ki (CYP2D6): 3.7 µM; Ki (CYP1A2): 2.7 µM
COc1ncnc(NS(=O)(=O)c2ccc(N)cc2)c1OC [Sulfadoxine] | > 20 | > 20 |  | > 20 |  |  |  | > 20 | 858 (≈ 2760 µM) | 2.2 | 959 | High (> 85% absorption (high)) | 1.9 10^−4 cm/s | 0.036 ± 0.001 | 0.93 ± 0.086 | < 7 | nmi |  | nmi | nmi | CYP2C19 % inhibition at max conc (CYP2C19): nmi; CYP2D6 % inhibition at max conc (CYP2D6; microsomes): nmi; CYP3A4 (test) % inhibition at max conc (CYP3A4): nmi
CC(C)NC(=N)NC(=N)Nc1ccc(Cl)c(Cl)c1 [Chlorproguanil] | > 20 | > 20 | 39 | 1.4 | > 20 | > 20 |  | > 20 | 1100 (≈ 3820 µM) | 1.8 | 998 | High (> 85% absorption (high)) | 1.5 10^−4 cm/s | 0.1 ± 0.007 | 0.052 ± 0.004 | < 7 | nmi | 41 | nmi | nmi | Ki (CYP2D6): 0.87 µM
